Assay results from ChEMBL document CHEMBL1201862, “PubChem BioAssay data set” (2004).
Active and inactive are the calls of the source.

Experiments:
CAAX prenyl protease 1 = CAAX prenyl protease 1 (Saccharomyces cerevisiae S288c, UniProt P47154); assay: Ste24 protease inhibitors, dose response, biochemical, S. cerevisiae, plate reader, cherry-pick (AID 488815)
Bcl-2-related protein A1 = biological target: T1, Bcl-2-related protein A1 (Mus musculus, UniProt Q07440); format: functional;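 also: confirmatory dose–response counterscreen on Bfl-1, used to check hits from a UBC13 polyubiquitin inhibitor campaign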
T1 sequence (Q07440 whole entry): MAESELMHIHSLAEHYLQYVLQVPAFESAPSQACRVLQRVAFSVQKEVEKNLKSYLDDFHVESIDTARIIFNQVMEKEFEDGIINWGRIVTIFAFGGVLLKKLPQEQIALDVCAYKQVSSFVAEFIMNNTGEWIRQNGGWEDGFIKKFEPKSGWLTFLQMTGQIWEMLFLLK

CAAX prenyl protease 2 = biological target: T2, CAAX prenyl protease 2 (Saccharomyces cerevisiae S288c, UniProt Q03530); format: biochemical
T2 sequence (Q03530 whole entry): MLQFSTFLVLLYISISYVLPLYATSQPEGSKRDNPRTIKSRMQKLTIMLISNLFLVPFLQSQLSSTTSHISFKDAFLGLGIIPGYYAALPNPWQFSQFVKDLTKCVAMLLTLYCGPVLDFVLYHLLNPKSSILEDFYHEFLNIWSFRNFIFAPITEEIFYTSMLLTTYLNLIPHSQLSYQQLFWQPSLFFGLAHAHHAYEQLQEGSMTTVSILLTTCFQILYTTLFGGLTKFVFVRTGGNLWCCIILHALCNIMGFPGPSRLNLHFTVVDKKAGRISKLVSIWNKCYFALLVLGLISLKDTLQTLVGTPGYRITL

[1] = biological target: T3, High affinity choline transporter 1 (Homo sapiens, UniProt Q9GZV3); assay: CHT inhibitors, dose response, cell-based, 5-point CRC, membrane potential dye (AID 504840); format: functional
T3 sequence (Q9GZV3 whole entry): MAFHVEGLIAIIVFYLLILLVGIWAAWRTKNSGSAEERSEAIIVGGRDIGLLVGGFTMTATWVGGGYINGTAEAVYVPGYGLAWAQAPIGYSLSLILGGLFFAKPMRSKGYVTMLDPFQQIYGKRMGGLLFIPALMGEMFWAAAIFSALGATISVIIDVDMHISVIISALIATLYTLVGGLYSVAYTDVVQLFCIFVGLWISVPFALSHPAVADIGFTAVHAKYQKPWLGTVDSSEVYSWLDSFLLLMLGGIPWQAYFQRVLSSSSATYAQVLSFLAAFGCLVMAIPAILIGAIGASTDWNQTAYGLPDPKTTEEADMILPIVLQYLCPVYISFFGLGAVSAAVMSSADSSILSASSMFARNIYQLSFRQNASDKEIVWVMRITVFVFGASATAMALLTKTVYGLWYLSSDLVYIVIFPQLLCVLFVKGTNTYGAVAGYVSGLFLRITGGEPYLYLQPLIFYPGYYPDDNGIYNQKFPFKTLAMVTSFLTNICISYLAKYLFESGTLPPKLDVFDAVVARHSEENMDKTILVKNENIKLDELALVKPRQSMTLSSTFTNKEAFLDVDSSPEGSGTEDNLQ

[2] = biological target: T4, Ubiquitin-conjugating enzyme E2 N (Homo sapiens, UniProt P61088); format: functional
T4 sequence (P61088 whole entry): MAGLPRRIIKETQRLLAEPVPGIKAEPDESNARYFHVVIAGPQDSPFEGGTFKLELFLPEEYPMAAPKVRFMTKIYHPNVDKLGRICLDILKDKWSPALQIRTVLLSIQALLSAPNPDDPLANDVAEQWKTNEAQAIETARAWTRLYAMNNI

[3] = biological target: T4, Ubiquitin-conjugating enzyme E2 N; format: functional; remark: listed apart in the source
[4] = biological target: T3, High affinity choline transporter 1; assay: CHT inhibitors, dose response, cell-based, 10-point CRC, membrane potential dye (AID 588401); format: functional;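 also: membrane potential dye fluorescence of choline-evoked depolarization via CHT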
[5] = biological target: PAS domain-containing serine/threonine-protein kinase (Homo sapiens, UniProt Q96RG2); format: functional
Chain of PAS domain-containing serine/threonine-protein kinase (Q96RG2 whole entry, the tested form may be a part): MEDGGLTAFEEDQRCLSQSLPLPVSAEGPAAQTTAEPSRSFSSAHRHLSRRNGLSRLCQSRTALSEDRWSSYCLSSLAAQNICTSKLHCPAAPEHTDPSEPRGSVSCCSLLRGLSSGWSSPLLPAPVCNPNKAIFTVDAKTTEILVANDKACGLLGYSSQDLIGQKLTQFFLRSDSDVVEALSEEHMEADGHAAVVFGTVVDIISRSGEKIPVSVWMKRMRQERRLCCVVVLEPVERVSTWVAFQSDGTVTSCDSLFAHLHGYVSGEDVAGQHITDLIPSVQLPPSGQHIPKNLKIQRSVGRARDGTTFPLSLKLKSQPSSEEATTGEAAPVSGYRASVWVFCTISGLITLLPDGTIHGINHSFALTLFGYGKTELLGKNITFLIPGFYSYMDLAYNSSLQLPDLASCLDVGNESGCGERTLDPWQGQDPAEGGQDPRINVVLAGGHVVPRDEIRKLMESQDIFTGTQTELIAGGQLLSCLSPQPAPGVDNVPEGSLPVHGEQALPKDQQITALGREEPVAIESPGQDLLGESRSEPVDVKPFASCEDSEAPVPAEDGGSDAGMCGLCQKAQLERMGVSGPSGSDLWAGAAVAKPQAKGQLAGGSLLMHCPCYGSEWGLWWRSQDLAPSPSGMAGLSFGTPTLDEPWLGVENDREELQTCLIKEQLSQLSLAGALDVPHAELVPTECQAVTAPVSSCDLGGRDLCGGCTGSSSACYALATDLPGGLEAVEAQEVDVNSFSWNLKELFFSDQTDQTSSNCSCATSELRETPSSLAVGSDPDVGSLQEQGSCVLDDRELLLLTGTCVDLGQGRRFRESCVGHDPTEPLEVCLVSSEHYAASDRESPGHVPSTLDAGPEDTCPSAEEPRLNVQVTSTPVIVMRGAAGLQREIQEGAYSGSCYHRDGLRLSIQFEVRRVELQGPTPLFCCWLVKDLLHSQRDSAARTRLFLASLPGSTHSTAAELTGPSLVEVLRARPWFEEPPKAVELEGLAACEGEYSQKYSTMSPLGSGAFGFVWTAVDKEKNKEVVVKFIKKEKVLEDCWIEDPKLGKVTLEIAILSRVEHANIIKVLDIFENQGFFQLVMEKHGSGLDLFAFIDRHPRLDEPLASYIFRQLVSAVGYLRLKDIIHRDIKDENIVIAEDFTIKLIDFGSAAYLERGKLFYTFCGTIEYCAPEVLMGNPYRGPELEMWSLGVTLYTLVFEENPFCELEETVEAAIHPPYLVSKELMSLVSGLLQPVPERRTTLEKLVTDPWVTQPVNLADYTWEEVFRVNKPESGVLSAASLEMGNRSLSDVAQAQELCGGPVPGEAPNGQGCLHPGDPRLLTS

[6] = biological target: T5, Lymphokine-activated killer T-cell-originated protein kinase (Homo sapiens, UniProt Q96KB5); format: functional;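 also: value comes from a kinase panel screen in which TOPK was one of the panel members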
T5 sequence (Q96KB5 whole entry): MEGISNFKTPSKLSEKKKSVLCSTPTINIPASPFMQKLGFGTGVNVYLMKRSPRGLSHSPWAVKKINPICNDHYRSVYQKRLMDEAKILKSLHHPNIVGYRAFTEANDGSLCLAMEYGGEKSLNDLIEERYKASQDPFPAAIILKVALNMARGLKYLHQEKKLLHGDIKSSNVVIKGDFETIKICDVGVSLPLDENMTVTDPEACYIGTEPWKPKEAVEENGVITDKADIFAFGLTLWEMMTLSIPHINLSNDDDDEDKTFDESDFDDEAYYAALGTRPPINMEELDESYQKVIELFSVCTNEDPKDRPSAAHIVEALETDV

[7] = biological target: Protein kinase C gamma type (Homo sapiens, UniProt P05129); format: functional
[8] = biological target: T6, Protein kinase C zeta type (Homo sapiens, UniProt Q05513); format: functional;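 also: measured as one member of a broad kinase profiling panel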
T6 sequence (Q05513 whole entry): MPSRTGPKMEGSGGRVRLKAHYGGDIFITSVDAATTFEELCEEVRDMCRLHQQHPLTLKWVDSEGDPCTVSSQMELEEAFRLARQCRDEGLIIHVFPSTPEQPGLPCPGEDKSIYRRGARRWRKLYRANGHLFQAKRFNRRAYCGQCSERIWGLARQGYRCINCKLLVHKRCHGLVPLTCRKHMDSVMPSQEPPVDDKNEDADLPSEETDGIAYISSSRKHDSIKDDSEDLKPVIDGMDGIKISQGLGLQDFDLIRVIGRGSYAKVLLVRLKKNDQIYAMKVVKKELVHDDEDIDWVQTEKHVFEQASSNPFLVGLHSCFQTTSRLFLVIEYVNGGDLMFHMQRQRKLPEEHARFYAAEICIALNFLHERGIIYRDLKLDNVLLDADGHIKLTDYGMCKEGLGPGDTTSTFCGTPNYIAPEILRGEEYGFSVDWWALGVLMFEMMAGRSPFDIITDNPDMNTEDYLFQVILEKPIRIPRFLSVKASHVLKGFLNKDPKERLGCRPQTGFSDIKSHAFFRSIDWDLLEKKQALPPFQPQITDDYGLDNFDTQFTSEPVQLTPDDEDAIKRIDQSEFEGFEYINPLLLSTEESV

[9] = biological target: Eukaryotic elongation factor 2 kinase (Homo sapiens, UniProt O00418); format: functional
[10] = biological target: MAP kinase-activated protein kinase 3 (Homo sapiens, UniProt Q16644); format: functional;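 also: value comes from a kinome-wide profiling panel in which MAPKAPK3 is one of the panel members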
[11] = biological target: Cyclin-dependent kinase 1 (Homo sapiens, UniProt P06493); format: functional;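 also: Kinome-wide panel profiling, with the target listed as panel member CDC2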
[12] = biological target: G protein-coupled receptor kinase 5 (Homo sapiens, UniProt P34947); assay: Navigating the Kinome. Panel member name: GPRK5; format: functional
[13] = biological target: T7, Dual specificity tyrosine-phosphorylation-regulated kinase 3 (Homo sapiens, UniProt O43781); format: functional;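 also: measured as one member of a broad kinase panel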
T7 sequence (O43781 whole entry): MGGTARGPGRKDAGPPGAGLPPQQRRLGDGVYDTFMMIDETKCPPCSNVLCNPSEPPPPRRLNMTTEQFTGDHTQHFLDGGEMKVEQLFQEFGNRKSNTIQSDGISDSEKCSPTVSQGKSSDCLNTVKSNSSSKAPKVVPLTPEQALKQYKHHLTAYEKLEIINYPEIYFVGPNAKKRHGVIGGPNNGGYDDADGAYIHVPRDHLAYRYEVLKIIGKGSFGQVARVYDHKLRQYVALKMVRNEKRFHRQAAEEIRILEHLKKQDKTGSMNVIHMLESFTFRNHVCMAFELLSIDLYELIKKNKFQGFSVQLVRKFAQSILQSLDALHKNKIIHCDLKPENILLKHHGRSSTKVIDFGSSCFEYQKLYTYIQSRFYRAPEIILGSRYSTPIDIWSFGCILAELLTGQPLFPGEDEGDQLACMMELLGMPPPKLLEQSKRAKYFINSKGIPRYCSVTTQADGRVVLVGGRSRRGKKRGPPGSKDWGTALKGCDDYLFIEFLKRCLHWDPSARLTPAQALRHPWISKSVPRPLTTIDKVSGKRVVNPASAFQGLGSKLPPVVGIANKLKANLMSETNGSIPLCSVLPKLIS

[14] = biological target: Cell division cycle 7-related protein kinase (Homo sapiens, UniProt O00311); format: functional;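 also: value obtained from a kinome-wide kinase panel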
Chain of Cell division cycle 7-related protein kinase (O00311 whole entry): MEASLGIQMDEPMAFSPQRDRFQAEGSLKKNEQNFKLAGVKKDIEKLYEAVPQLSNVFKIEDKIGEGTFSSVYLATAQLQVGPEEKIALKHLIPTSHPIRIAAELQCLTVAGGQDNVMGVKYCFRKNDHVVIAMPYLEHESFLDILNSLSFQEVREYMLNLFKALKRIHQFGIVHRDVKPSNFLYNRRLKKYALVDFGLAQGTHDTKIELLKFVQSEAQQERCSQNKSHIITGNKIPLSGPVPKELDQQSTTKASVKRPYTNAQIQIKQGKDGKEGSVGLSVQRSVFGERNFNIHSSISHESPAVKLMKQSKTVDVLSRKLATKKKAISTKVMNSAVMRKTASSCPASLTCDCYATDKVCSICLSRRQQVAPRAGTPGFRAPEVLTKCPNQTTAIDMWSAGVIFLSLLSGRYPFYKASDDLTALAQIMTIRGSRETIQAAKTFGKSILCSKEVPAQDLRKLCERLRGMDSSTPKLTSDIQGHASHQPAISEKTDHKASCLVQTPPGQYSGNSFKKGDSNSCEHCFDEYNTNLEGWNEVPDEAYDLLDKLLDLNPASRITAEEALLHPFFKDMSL

[15] = biological target: T8, Testis-specific serine/threonine-protein kinase 2 (Homo sapiens, UniProt Q96PF2); format: functional;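 also: part of the Navigating the Kinome panel, target entry STK22B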
T8 sequence (Q96PF2 whole entry): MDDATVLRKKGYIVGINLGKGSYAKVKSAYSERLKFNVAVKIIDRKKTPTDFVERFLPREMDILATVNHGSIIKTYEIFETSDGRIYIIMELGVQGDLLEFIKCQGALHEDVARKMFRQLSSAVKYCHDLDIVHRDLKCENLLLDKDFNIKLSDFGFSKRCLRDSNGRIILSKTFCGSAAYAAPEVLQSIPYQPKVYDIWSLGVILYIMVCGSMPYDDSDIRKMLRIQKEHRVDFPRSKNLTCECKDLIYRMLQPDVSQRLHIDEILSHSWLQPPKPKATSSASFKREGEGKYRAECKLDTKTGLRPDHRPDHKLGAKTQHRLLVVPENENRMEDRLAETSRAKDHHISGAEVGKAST

[16] = biological target: Neuropeptides B/W receptor type 1 (Homo sapiens, UniProt P48145); assay: GPR7 antagonist potency, late-stage follow-up, cell-based, fluorescence, dose response, set 5 (AID 588566); format: functional
[17] = biological target: Melanin-concentrating hormone receptor 1 (Homo sapiens, UniProt Q99705); assay: Late-stage fluorescence-based counterscreen for antagonists of the G-protein coupled receptor 7 (GPR7): cell-based dose response assay to identify antagonists of the melanin-concentrating hormone receptor 1 (MCHR1) Set 5.; format: functional
Chain of Melanin-concentrating hormone receptor 1 (Q99705 whole entry): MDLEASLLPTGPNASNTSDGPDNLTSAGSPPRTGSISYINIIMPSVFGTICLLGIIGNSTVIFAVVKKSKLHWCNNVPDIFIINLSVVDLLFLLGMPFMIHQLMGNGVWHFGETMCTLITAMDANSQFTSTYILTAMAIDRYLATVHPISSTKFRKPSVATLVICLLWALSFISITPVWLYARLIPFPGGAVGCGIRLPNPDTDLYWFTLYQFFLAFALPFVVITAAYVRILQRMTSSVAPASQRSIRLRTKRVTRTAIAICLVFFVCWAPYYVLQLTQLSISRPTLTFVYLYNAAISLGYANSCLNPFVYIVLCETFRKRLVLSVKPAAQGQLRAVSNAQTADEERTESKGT

[18] = biological target: Glycogen synthase kinase-3 alpha (Homo sapiens, UniProt P49840); assay: human GSK3 alpha kinase inhibition, dose response, selectivity assay for GSK3beta inhibitor project, biochemical, microfluidics, dry powder samples, set 2 (AID 623978); format: functional
Chain of Glycogen synthase kinase-3 alpha (P49840 whole entry): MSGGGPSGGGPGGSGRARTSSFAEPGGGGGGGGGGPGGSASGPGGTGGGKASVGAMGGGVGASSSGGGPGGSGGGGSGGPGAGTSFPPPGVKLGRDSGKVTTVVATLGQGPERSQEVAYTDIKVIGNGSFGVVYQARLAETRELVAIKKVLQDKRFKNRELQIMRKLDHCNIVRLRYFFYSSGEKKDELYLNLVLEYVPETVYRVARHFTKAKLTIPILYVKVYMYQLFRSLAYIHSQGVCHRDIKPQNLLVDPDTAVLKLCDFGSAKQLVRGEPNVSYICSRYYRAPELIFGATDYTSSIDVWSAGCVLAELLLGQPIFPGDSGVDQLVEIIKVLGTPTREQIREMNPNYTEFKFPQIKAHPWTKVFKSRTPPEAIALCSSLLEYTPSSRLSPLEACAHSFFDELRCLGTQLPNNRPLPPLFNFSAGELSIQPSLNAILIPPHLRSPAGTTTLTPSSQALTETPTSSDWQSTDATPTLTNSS

[19] = biological target: T9, Glycogen synthase kinase-3 beta (Homo sapiens, UniProt P49841); assay: GSK3beta kinase inhibitors, dose response, biochemical, microfluidics, dry powder samples, set 2 (AID 623989); format: functional
T9 sequence (P49841 whole entry, the tested form may be a part): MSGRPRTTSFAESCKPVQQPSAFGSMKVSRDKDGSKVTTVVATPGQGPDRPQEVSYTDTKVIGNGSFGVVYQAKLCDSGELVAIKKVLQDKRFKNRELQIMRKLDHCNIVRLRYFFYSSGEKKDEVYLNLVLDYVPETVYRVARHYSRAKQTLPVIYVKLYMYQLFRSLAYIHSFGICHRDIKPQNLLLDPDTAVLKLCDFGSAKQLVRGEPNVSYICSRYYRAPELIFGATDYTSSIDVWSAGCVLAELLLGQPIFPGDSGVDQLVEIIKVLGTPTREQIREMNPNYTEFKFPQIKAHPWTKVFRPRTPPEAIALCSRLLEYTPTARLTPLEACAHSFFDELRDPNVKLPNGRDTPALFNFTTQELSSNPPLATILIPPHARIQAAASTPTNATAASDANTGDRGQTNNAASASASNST

LIM domain kinase 1 = LIM domain kinase 1 (Homo sapiens, UniProt P53667); assay: Navigating the Kinome. Panel member name: LIMK1; format: functional
[20] = biological target: Serine/threonine-protein kinase Chk1 (Homo sapiens, UniProt O14757); format: functional;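 also: measured as one member of a kinome-wide kinase profiling panel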
Chain of Serine/threonine-protein kinase Chk1 (O14757 whole entry): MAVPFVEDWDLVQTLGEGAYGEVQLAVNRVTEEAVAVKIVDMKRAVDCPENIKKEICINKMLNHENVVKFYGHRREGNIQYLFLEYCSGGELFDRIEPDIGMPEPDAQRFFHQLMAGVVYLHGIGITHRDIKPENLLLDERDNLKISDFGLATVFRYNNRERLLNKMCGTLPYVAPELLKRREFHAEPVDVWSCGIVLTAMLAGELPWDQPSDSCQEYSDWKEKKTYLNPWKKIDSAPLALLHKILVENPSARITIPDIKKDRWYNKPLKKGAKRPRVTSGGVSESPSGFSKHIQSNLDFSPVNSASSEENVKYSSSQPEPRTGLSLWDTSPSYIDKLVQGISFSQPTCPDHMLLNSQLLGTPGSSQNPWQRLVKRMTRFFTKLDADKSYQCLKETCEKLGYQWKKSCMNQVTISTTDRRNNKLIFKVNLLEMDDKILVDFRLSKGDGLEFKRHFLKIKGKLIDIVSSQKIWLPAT

[21] = biological target: Dual specificity protein kinase CLK4 (Homo sapiens, UniProt Q9HAZ1); format: functional
[22] = biological target: T9, Glycogen synthase kinase-3 beta; format: functional
[23] = biological target: Cyclin-dependent kinase 9 (Homo sapiens, UniProt P50750); format: functional;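 also: value from the CDK9 entry of a kinome-spanning kinase panel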
[24] = biological target: Serine/threonine-protein kinase pim-1 (Homo sapiens, UniProt P11309); format: functional
[25] = biological target: Cyclin-dependent kinase 7 (Homo sapiens, UniProt P50613); format: functional;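 also: value comes from a kinome-wide kinase profiling panel in which CDK7 is one member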
[26] = biological target: Rho-associated protein kinase 1 (Homo sapiens, UniProt Q13464); format: functional;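 also: measured within a broad kinome-wide panel profiling many kinases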
[27] = biological target: Cyclin-dependent kinase 8 (Homo sapiens, UniProt P49336); assay: Navigating the Kinome. Panel member name: CDK8; format: functional
Chain of Cyclin-dependent kinase 8 (P49336 whole entry): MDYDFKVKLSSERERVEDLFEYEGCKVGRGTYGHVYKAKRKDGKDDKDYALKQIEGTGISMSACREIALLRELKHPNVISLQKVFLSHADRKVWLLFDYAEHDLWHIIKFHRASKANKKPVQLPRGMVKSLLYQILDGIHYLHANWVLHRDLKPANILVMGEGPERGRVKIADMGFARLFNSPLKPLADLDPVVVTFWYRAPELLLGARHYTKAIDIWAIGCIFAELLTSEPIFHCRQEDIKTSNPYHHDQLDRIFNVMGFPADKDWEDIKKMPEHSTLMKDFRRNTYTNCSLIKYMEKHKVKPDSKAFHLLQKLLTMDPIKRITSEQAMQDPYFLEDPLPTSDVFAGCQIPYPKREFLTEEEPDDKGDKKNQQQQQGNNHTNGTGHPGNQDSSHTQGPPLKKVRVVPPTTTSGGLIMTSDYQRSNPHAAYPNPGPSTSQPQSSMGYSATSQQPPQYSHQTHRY

For NCCCn1c(C(=O)c2cc(Cl)c(N)c(Cl)c2)c2ccc(C(F)(F)F)cc2[n+]1[O-], the AC50 (CAAX prenyl protease 1) was > 100 µM (inactive), the IC50 (Bcl-2-related protein A1) was > 20 µM (inactive) and the AC50 (CAAX prenyl protease 2) was 35.5 µM (active). For the same compound, the IC50 [1] was 1.39 µM (active), the IC50 [2] was 4.28 µM (active) and the IC50 [3] was 4.21 µM (active). For the same compound, the IC50 [4] was 1.08 µM (active).
CNC(=O)c1ccccc1Sc1ccc2c(C=Cc3ccccn3)n[nH]c2c1 was tested, and the Ki [5] was > 1.58 µM (inactive), the Ki [6] was > 10 µM (inactive) and the Ki [7] was > 7.94 µM (inactive). The Ki [8] was > 7.94 µM (inactive), the Ki [9] was > 3.98 µM (inactive) and the Ki [10] was > 10 µM (inactive). For the same compound, the Ki [11] was > 7.94 µM (inactive), the Ki [12] was > 3.98 µM (inactive) and the Ki [13] was > 6.31 µM (inactive). For the same compound, the Ki [14] was > 1.26 µM (inactive) and the Ki [15] was > 1.58 µM (inactive).
With COc1ccc(Oc2c(F)cnn(Cc3cccc4ccccc34)c2=O)cc1 the IC50 [16] was 2.07 µM (active) and the IC50 [17] was 8.86 µM (active).
With Nc1nc(NCC2CCCO2)nc(Nc2ccc(Cl)cc2)c1[N+](=O)[O-] (stereo unspecified) the AC50 [18] was 1.56 µM (active) and the AC50 [19] was 0.429 µM (active).
With O=C(C=Cc1ccc(Br)cc1)Nc1cccc2cnccc12 the Ki (LIM domain kinase 1) was 3.16 µM (active), the Ki [20] was 2 µM (active) and the Ki [21] was 1.58 µM (active). For the same compound, the Ki [22] was 2 µM (active), the Ki [23] was 1.58 µM (active) and the Ki [24] was 2.51 µM (active). The Ki [25] was 1.58 µM (active), the Ki [26] was 3.16 µM (active) and the Ki [27] was 2 µM (active).
